# Source: paper PMC7749516, “Safety and nonclinical and clinical pharmacokinetics of PC945, a novel inhaled triazole antifungal agent” (Pharmacology Research & Perspectives, 2020)
# “And” between values parts separate entries of the source, which are not always exact repeats. Identical values can stand only once. Marks after values point to notes of the source that are not given here.
# Assay: Clinical pharmacokinetics, single ascending inhaled dose in healthy subjects (Cohort 1)
# Type: in vivo, human
# Conditions: for AUC0–24h / C max / AUC0–∞ / t ½: geometric mean (CV%); for t max: median (range), postend of inhalation
# Description: This PC945 first‐in‐human clinical trial (ClinicalTrials.gov Identifier: NCT02715570) was a two‐part randomized, placebo‐controlled study to assess the safety and tolerability of PC945 in both healthy subjects and subjects with mild asthma, conducted at Parexel Early Phase Clinical Unit (Harrow, UK). The study was considered single‐blind as the appearance of active and placebo doses were different, however, it was conducted in a double‐blind manner (employing separate dosing and assessment teams).
# Part one consisted of a single dose escalation study (Cohort 1) and a repeat dose study (Cohort 2) of inhaled PC945 in healthy subjects. Part two comprised a single dose study of inhaled PC945 in subjects with mild asthma (Cohort 3). The doses selected were predicted to achieve target lung concentrations above the IC90/MIC90 for A. fumigatus (based on data from a range of in vitro and in vivo systems) throughout a 24‐hour period and with a suitable safety margin based on animal toxicology data.
# In Cohort 1, 11 healthy subjects (three males and eight females; mean age: 48.5 years, mean weight: 65.32 kg, mean body mass index [BMI]: 23.62 kg/m^2), attended the single ascending dose study. Eight healthy subjects started the study in which two subjects were randomized to each of the four ascending dose treatment sequences (Table 1); two subjects withdrew due to adverse events unrelated to study medication and both were replaced. One of the replacement subjects subsequently withdrew from the study for personal reasons and was replaced by another subject (Figure 1). Overall, six subjects each received three of four doses of PC945 (0.5, 2, 5, and 10 mg) and one dose of placebo. These doses were administered with a minimum of 13 days interval to allow for washout.
# Serial blood samples were collected to determine plasma PC945 concentrations. For the single dose study in healthy subjects and in subjects with mild asthma, blood samples were collected predose and at 0.25, 0.5, 1, 2, 4, 6, 8, 24, 30, and 48 hours postend of inhalation and at the follow‐up visit. For the repeat dose study, blood samples were collected (a) predose and at 0.25, 0.5, 1, 2, 4, 6, 8, 10, 12, and 24 hours postend of inhalation on Days 1 and 7, and 30 and 48 hours on Day 7; (b) predose on Days 5 and 6; (c) at the follow‐up visit.
compound,measurement,setting,value
Cc1cc(N2CCN(c3ccc(C(=O)Nc4ccc(F)cc4)cc3)CC2)ccc1OC[C@@H]1CO[C@@](Cn2cncn2)(c2ccc(F)cc2F)C1 [PC945],Increase in C max for a doubling in dose,"single doses 0.5 to 10 mg, 90% CI 1.54, 2.02",1.77 fold
same,Increase in AUC0–24h for a doubling in dose,"single doses 0.5 to 10 mg, 90% CI 1.64, 2.15",1.88 fold
same,AUC0–24h,single inhaled 0.5 mg,726 (73.4) ^a pg•h/mL
same,C max,single inhaled 0.5 mg,54.7 (64.8) ^a pg/mL
same,AUC0–∞,"single inhaled 0.5 mg, n = 2",1480 (7.41) ^b pg•h/mL
same,t ½,"single inhaled 0.5 mg, n = 2, considered unreliable",36.9 (24.1) ^b h
same,t max,single inhaled 0.5 mg,1 h and 1.10 (0.250‐2.10) ^a h
same,AUC0–24h,single inhaled 2 mg,1990 (102) pg•h/mL
same,C max,single inhaled 2 mg,128 (107) pg/mL
same,AUC0–∞,"single inhaled 2 mg, n = 3",3140 (175) ^c pg•h/mL
same,t ½,"single inhaled 2 mg, n = 3, considered unreliable",27.9 (58.4) ^c h
same,t max,single inhaled 2 mg,4 h and 4.11 (2.09‐8.11) h
same,AUC0–24h,single inhaled 5 mg,5440 (48.0) pg•h/mL
same,C max,single inhaled 5 mg,322 (51.1) pg/mL
same,t ½,"single inhaled 5 mg, n = 4, considered unreliable",37.3 (36.4) ^d h
same,t max,single inhaled 5 mg,5 h and 5.10 (2.08‐8.12) h
same,C max,single inhaled 10 mg,619 (39.1) pg/mL
same,t ½,"single inhaled 10 mg, considered unreliable",110 (16.5) h
same,t max,single inhaled 10 mg,2 h and 2.13 (0.330‐6.15) h
